In ChEMBL document CHEMBL1201862, “PubChem BioAssay data set” (2004):
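Growth conditions: 96-well plates. Treatment: test compound, 48 hours, 5 concentrations. Analysis: linear interpolation between bracketing concentrations; unreached endpoints set to highest concentration. Here, GI50 denotes the concentration required for 50% inhibition of growth.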 Calls of active or inactive are those of the source. Cut-off read from the data, not from the text of the source: active = GI50 up to about 1.1 µM and inactive = higher.

Columns and labels:
Experiment in all cases: NCI-60 cell line screen, 48 h
HOP-62 = tested on: HOP-62
OVCAR-4 = tested on: OVCAR-4
TK-10 = tested on: TK-10
SF-539 = tested on: SF-539
SK-MEL-2 = tested on: SK-MEL-2
U-251 = tested on: U-251
COLO 205 = tested on: COLO 205
786-0 = tested on: 786-0
HCT-15 = tested on: HCT-15
SNB-19 = tested on: SNB-19
NCI-H460 = tested on: NCI-H460
Malme-3M = tested on: Malme-3M
OVCAR-3 = tested on: OVCAR-3
KM12 = tested on: KM12
CAKI-1 = tested on: CAKI-1
K562 = tested on: K562
IGROV-1 = tested on: IGROV-1
OVCAR-8 = tested on: OVCAR-8
HCC 2998 = tested on: HCC 2998

| Structure (SMILES) | GI50 (HOP-62) | GI50 (OVCAR-4) | GI50 (TK-10) | GI50 (SF-539) | GI50 (SK-MEL-2) | GI50 (U-251) | GI50 (COLO 205) | GI50 (786-0) | GI50 (HCT-15) [µM] | GI50 (SNB-19) | GI50 (NCI-H460) | GI50 (Malme-3M) | GI50 (OVCAR-3) | GI50 (KM12) | GI50 (CAKI-1) | GI50 (K562) | GI50 (IGROV-1) | GI50 (OVCAR-8) | GI50 (HCC 2998) |
| --- | --- | --- | --- | --- | --- | --- | --- | --- | --- | --- | --- | --- | --- | --- | --- | --- | --- | --- | --- |
| O=C(c1ccco1)N(C(=S)N1CCN(c2ccccc2)CC1)c1ccccc1 | > 100 µM (inactive) | > 100 µM (inactive) | > 100 µM (inactive) | > 100 µM (inactive) | > 100 µM (inactive) | > 100 µM (inactive) | > 100 µM (inactive) | > 100 µM (inactive) | > 100 | > 100 µM (inactive) | > 100 µM (inactive) | > 100 µM (inactive) | > 100 µM (inactive) | > 100 µM (inactive) | > 100 µM (inactive) | > 100 µM (inactive) | > 100 µM (inactive) | > 100 µM (inactive) | – |
| O=C1C2c3[nH]c4ccccc4c3[C@@H]3CCCCC3C2C(=O)N1c1ccccc1 (stereo not given in full) | – | 20.5 µM (inactive) | 28 µM (inactive) | > 10 µM (inactive) | – | 14.4 µM (inactive) | 19.1 µM (inactive) | 18.9 µM (inactive) | 25.7 | 36.1 µM (inactive) | 17.8 µM (inactive) | 20.6 µM (inactive) | 15.4 µM (inactive) | 19.2 µM (inactive) | – | 20.9 µM (inactive) | 23 µM (inactive) | 26.4 µM (inactive) | 19.3 µM (inactive) |
| ClC(/N=N/c1ccccc1)=N/Nc1ccccc1 | > 100 µM (inactive) | > 100 µM (inactive) | 21.3 µM (inactive) | > 100 µM (inactive) | > 100 µM (inactive) | > 100 µM (inactive) | > 100 µM (inactive) | > 100 µM (inactive) | – | > 100 µM (inactive) | > 100 µM (inactive) | > 100 µM (inactive) | – | 60.7 µM (inactive) | 33.6 µM (inactive) | 38.3 µM (inactive) | > 100 µM (inactive) | > 100 µM (inactive) | 41.8 µM (inactive) |
| CC1(C)O/C(=C\c2ccccc2)C(=O)/C(=C/c2ccccc2)O1 | 74.8 µM (inactive) | 56.6 µM (inactive) | 44.2 µM (inactive) | 67 µM (inactive) | 18.4 µM (inactive) | 28.4 µM (inactive) | 43.3 µM (inactive) | 37.8 µM (inactive) | – | 47.4 µM (inactive) | 59.6 µM (inactive) | 38 µM (inactive) | 27.1 µM (inactive) | 53.8 µM (inactive) | 55.3 µM (inactive) | 27 µM (inactive) | 51.4 µM (inactive) | 45.2 µM (inactive) | – |
| CC1C(c2cc(C(C)(C)C)c(O)c(C(C)(C)C)c2)c2cc3c(cc2OC1N1CCOCC1)OCO3 (stereo not given) | 16.9 µM (inactive) | – | 15.5 µM (inactive) | 12.9 µM (inactive) | 23.7 µM (inactive) | – | 71 µM (inactive) | 13.7 µM (inactive) | > 10 | 15.7 µM (inactive) | 21.6 µM (inactive) | – | 15.8 µM (inactive) | 43.9 µM (inactive) | – | 27.1 µM (inactive) | 36.2 µM (inactive) | 19.1 µM (inactive) | 12.9 µM (inactive) |
| NCCCC(N/C=C1/N=C(c2ccccc2)OC1=O)C(=O)O (stereo not given) | > 100 µM (inactive) | > 100 µM (inactive) | > 100 µM (inactive) | > 100 µM (inactive) | > 100 µM (inactive) | > 100 µM (inactive) | > 100 µM (inactive) | > 100 µM (inactive) | > 100 | > 100 µM (inactive) | > 100 µM (inactive) | > 100 µM (inactive) | > 100 µM (inactive) | – | – | 34.4 µM (inactive) | > 100 µM (inactive) | > 100 µM (inactive) | > 100 µM (inactive) |
| CN1CC[C@]2(C)c3cc(O)ccc3CC3CCCC1C32C (stereo not given in full) | > 100 µM (inactive) | – | > 100 µM (inactive) | > 100 µM (inactive) | – | > 100 µM (inactive) | > 100 µM (inactive) | > 100 µM (inactive) | > 100 | > 100 µM (inactive) | > 100 µM (inactive) | > 100 µM (inactive) | > 100 µM (inactive) | > 100 µM (inactive) | > 100 µM (inactive) | > 100 µM (inactive) | > 100 µM (inactive) | > 100 µM (inactive) | 47.2 µM (inactive) |
| COC(=O)C1=Cc2cc(OC)c(OC)cc2[C@H](c2ccc(OC)c(OC)c2)C1C(=O)OC (stereo not given in full) | > 100 µM (inactive) | > 100 µM (inactive) | > 100 µM (inactive) | 69.8 µM (inactive) | – | > 100 µM (inactive) | > 100 µM (inactive) | > 100 µM (inactive) | 76 | > 100 µM (inactive) | > 100 µM (inactive) | > 100 µM (inactive) | > 100 µM (inactive) | > 100 µM (inactive) | > 100 µM (inactive) | > 100 µM (inactive) | > 100 µM (inactive) | > 100 µM (inactive) | > 100 µM (inactive) |
